Results from patent publication US10829473B2, “Modulators of the cystic fibrosis transmembrane conductance regulator protein and methods of use” (AbbVie Overseas S.Á.R.L., priority 2017, dated 2020).
Where two headings read alike, the source gives them in different places. Marks after values point to notes of the source that are not given here.

Target: T1, F508delCFTR (Homo sapiens, UniProt P13569, DEL508-508)
T1 construct: expressed in transfected cells; host or cells: CFBE41o- human lung derived epithelial cells (CFBE41o-F508delCFTR-HRP), doxycycline-inducible
T1 sequence (P13569 with tags, fused parts or gaps DEL508-508): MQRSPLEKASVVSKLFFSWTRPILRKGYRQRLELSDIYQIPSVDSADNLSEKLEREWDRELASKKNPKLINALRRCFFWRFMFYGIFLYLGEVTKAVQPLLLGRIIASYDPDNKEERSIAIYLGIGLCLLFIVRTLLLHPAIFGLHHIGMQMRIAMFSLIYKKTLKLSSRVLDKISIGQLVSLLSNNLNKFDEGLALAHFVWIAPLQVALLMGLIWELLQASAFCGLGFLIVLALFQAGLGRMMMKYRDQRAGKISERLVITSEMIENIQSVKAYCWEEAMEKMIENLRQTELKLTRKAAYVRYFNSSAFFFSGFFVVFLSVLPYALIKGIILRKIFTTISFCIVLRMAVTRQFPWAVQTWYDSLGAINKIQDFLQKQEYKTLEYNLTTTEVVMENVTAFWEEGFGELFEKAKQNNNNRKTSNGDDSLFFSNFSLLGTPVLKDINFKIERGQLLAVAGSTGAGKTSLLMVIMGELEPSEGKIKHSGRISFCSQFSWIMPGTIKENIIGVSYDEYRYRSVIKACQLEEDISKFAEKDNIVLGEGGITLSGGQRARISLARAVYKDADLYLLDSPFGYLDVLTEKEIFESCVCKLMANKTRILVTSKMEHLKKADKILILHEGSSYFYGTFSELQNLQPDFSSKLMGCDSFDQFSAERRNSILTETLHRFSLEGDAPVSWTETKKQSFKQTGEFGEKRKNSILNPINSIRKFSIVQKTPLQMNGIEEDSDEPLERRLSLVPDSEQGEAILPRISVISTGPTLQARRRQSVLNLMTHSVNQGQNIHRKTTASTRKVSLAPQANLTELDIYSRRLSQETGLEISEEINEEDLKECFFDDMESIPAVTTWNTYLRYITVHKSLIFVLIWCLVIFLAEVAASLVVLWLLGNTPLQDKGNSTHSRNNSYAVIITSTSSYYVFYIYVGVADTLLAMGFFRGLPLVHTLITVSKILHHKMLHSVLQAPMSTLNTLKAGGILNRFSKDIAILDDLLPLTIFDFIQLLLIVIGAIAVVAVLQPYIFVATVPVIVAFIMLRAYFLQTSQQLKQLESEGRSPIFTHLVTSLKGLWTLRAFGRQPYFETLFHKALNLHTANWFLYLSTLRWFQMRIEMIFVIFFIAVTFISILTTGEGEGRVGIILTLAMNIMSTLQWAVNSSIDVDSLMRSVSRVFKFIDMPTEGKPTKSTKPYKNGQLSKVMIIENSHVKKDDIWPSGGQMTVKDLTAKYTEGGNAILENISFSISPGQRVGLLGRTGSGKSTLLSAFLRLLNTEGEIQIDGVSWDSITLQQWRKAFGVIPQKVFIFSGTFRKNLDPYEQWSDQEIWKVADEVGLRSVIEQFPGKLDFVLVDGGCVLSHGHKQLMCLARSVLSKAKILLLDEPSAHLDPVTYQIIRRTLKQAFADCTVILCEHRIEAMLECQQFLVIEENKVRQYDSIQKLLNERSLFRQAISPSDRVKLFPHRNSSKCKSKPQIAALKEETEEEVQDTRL
Assay: Cell Surface Expression-Horse Radish Peroxidase (CSE-HRP) Assay;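 on EC50 (with co-corrector): co-corrector chromenyl benzoic acid corrector at 2 or 3 µM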;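 on Maximum % activity (without co-corrector): % of on-plate positive control chromenyl benzoic acid corrector at 2 or 3 µM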
Type: cell-based
Conditions: for Maximum % activity (with co-corrector) / Emax: maximum at any tested concentration; for Emax: read-out: Maximum % activity (without co-corrector)
In short: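 Corrector compounds were given as 8-point 3-fold series from 20 or 30 μM, with or without a 2 μM co-corrector, for 18-24 h at 33 °C. Surface HRP was read by luminol luminescence as % of positive control; variable-Hill-slope sigmoidal fitting gave EC50 from triplicate plates.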

[1] = test compound alone, without co-corrector, read-out: EC50 (without co-corrector)
[2] = with co-corrector, read-out: EC50 (with co-corrector)
[3] = test compound with co-corrector
[4] = test compound with co-corrector, read-out: EC50 (with co-corrector)
[5] = test compound without co-corrector
[6] = test compound without co-corrector, read-out: EC50 (without co-corrector)

SMILES | EC50 [1] [µM] | Maximum % activity (with co-corrector) (with co-corrector) | EC50 [2] [µM] | Emax (without co-corrector) [%] | Maximum % activity (with co-corrector) [3] | EC50 [4] [µM] | Emax [5] [%] | EC50 [6] [µM] | EC50 (without co-corrector) [5]
COc1ccc(C2COC2)cc1C1(C(=O)NS(=O)(=O)c2cccc3ncccc23)CC1 [Example I-90, 1-[2-methoxy-5-(oxetan-3-yl)phenyl]-N-(quinoline-5-sulfonyl)cyclopropane-1-carboxamide] | 3 to 10 | +++ (≥350) | 3 to 10 | 50 to 150 |  |  |  |  | 
COc1ccc2c(S(=O)(=O)NC(=O)C3(c4cc(C5CCC5)cnc4OCC(C)C)CC3)cccc2n1 [II-94] | < 3 | +++ (≥350) | < 3 | > 150 |  |  |  |  | 
Cc1ccc(OC2COC2)c(C2(C(=O)NS(=O)(=O)c3cccc4nc(N)ccc34)CC2)c1 [II-90] | 3 to 10 | +++ (≥350) | 3 to 10 | > 150 |  |  |  |  | 
COCCOc1ncc(C2CCC2)cc1C1(C(=O)NS(=O)(=O)c2cccc3ncccc23)CC1 [Example GI-111, 1-[5-cyclobutyl-2-(2-methoxyethoxy)pyridin-3-yl]-N-(quinoline-5-sulfonyl)cyclopropane-1-carboxamide] |  |  |  |  | +++ (≥350) | < 3 | > 150 | < 3 | 
COc1ccc(C)c(OC)c1C1(C(=O)NS(=O)(=O)c2cccc3ncccc23)CC1 [Example I-41, 1-(2,6-dimethoxy-3-methylphenyl)-N-(quinoline-5-sulfonyl)cyclopropane-1-carboxamide] | < 3 | +++ (≥350) | < 3 | > 150 |  |  |  |  | 
CCOc1ccc(C)cc1C1(C(=O)NS(=O)(=O)c2cccc3nc(OC)ccc23)CC1 [II-83] | < 3 | +++ (≥350) | < 3 | > 150 |  |  |  |  | 
COc1cnc(OCC2CC2)c(C2(C(=O)NS(=O)(=O)c3cccc4[nH]ccc34)CC2)c1 [Example GI-88, 1-[2-(cyclopropylmethoxy)-5-methoxypyridin-3-yl]-N-(1H-indole-4-sulfonyl)cyclopropane-1-carboxamide] |  |  |  |  | +++ (≥350) | < 3 | > 150 | < 3 | 
COc1cccc(C2(C(=O)NS(=O)(=O)c3cccc4ccccc34)CC2)c1 [II-1] | 3 to 10 | +++ (≥350) | 3 to 10 | > 150 |  |  |  |  | 
CCc1ccc(OC(C)C)c(C2(C(=O)NS(=O)(=O)c3cccc4[nH]ccc34)CC2)n1 [Example GI-56, 1-{6-ethyl-3-[(propan-2-yl)oxy]pyridin-2-yl}-N-(1H-indole-4-sulfonyl)cyclopropane-1-carboxamide] |  |  |  |  | +++ (≥350) | < 3 | > 150 | 3 to 10 | 
Cc1ccc(C)c(C2(C(=O)NS(=O)(=O)c3cccc4nc(N)ccc34)CC2)c1 [Example I-81, N-(2-aminoquinoline-5-sulfonyl)-1-(2,5-dimethylphenyl)cyclopropane-1-carboxamide] | < 3 | +++ (≥350) | < 3 | > 150 |  |  |  |  | 
COc1ccc(C2CCC2)cc1C1(C(=O)NS(=O)(=O)c2cccc3cnn(C)c23)CC1 [Example I-60, 1-(5-cyclobutyl-2-methoxyphenyl)-N-(1-methyl-1H-indazole-7-sulfonyl)cyclopropane-1-carboxamide] | < 3 | +++ (≥350) | < 3 | > 150 |  |  |  |  | 
COc1ncc(C(F)(F)F)cc1C1(C(=O)NS(=O)(=O)c2cccc3c2ccn3C)CC1 [II-18] | 3 to 10 | +++ (≥350) | < 3 | > 150 |  |  |  |  | 
Cc1ccc2c(S(=O)(=O)NC(=O)C3(c4cc(C5CCC5)cnc4N4CCC(OC(C)C)CC4)CC3)cccc2n1 [Example GI-113, 1-(5-cyclobutyl-2-{4-[(propan-2-yl)oxy]piperidin-1-yl}pyridin-3-yl)-N-(2-methylquinoline-5-sulfonyl)cyclopropane-1-carboxamide] |  |  |  |  | +++ (≥350) | < 3 | > 150 | < 3 | 
COc1ccc(C2CC2)c(C)c1C1(C(=O)NS(=O)(=O)c2cccc3c2CCCN3)CC1 [II-37] | < 3 | +++ (≥350) | < 3 | > 150 |  |  |  |  | 
COCCOc1ncc(OC)cc1C1(C(=O)NS(=O)(=O)c2cccc3nc(C)ccc23)CC1 [GII-42, 1-[5-methoxy-2-(2-methoxyethoxy)pyridin-3-yl]-N-(2-methylquinoline-5-sulfonyl)cyclopropane-1-carboxamide] |  |  |  |  | ++ (≥150 and <350) | 3 to 10 | 50 to 150 |  | ++^a
CCc1cnc(N(C)C)c(C2(C(=O)NS(=O)(=O)c3cccc4[nH]ccc34)CC2)c1 [GII-49, 1-[2-(dimethylamino)-5-ethylpyridin-3-yl]-N-(1H-indole-4-sulfonyl)cyclopropane-1-carboxamide] |  |  |  |  | +++ (≥350) | 3 to 10 | > 150 | 3 to 10 | 
COc1ncc(C2CCC2)c(C)c1C1(C(=O)NS(=O)(=O)c2cccc3c2ccn3C)CC1 [II-41] | 3 to 10 | +++ (≥350) | < 3 | 50 to 150 |  |  |  |  | 
COc1ncc(C2CCC2)c(C)c1C1(C(=O)NS(=O)(=O)c2cccc3nc(C)ccc23)CC1 [II-33] | 3 to 10 | +++ (≥350) | < 3 | > 150 |  |  |  |  | 
Cc1ccc2c(S(=O)(=O)NC(=O)C3(c4cc(Cl)cnc4N4CCCC4)CC3)cccc2n1 [Example GI-36, 1-[5-chloro-2-(pyrrolidin-1-yl)pyridin-3-yl]-N-(2-methylquinoline-5-sulfonyl)cyclopropane-1-carboxamide] |  |  |  |  | +++ (≥350) | < 3 | > 150 | 3 to 10 | 
O=C(NS(=O)(=O)c1ccccc1)C1(c2ccc(Cl)cc2)CC1 [Example III-33, N-(benzenesulfonyl)-1-(4-chlorophenyl)cyclopropane-1-carboxamide] | 3 to 10 | ++ (≥150 and <350) | 3 to 10 | < 50 |  |  |  |  | 
CCc1ccc(OC(F)F)c(C2(C(=O)NS(=O)(=O)c3cccc4ncccc34)CC2)c1 [II-98] | < 3 | +++ (≥350) | < 3 | > 150 |  |  |  |  | 
COc1cc(OC(C)C)c(C2(C(=O)NS(=O)(=O)c3cccc4c3CCCN4)CC2)cn1 [GII-24, 1-{6-methoxy-4-[(propan-2-yl)oxy]pyridin-3-yl}-N-(1,2,3,4-tetrahydroquinoline-5-sulfonyl)cyclopropane-1-carboxamide] |  |  |  |  | ++ (≥150 and <350) | 3 to 10 | 50 to 150 |  | ++^a
